Patent publication US11529397B2, “Method of treating mucopolysaccharidosis type IVA” (Saint Louis University, priority 2018, dated 2022)

B1: N-acetylgalactosamine-6-sulfatase (protein, listed as Homo sapiens)
chain: APQPPNILLLLMDDMGWGDLGVYGEPSRETPNLDRMAAEGLLFPNFYSANPLCSPSRAALLTGRLPIRNGFYTTNAHARNAYTPQEIVGGIPDSEQLLPELLKKAGYVSKIVGKWHLGHRPQFHPLKHGFDEWFGSPNCHFGPYDNKARPNIPVYRDWEMVGRYYEEFPINLKTGEANLTQIYLQEALDFIKRQARHHPFFLYWAVDATHAPVYASKPFLGTSQRGRYGDAVREIDDSIGKILELLQDLHVADNTFVFFTSDNGAALISAPEQGGSNGPFLCGKQTTFEGGMREPALAWWPGHVTAGQVSHQLGSIMDLFTTSLALAGLTPPSDRAIDGLNLLPTLLQGRLMDRPIFYYRGDTLMAATLGQHKAHFWTWTNSWENFRQGIDFCPGQNVSGVTTHNLEDHTKLPLIFHLGRDPGERFPLSFASAEYQEALSRITSVVQQHQEALVPAQPQLNVCNWAVMNWAPPGCEKLGKCLTPPESIPKKCLWSH
notes: recombinant human GALNS produced in CHO cells, used for ERT and oral tolerance

How the values were obtained:
MKC mice [1] = assay: Oral tolerance induction: GALNS specific IgG plasma levels by ELISA (Example 19); format: in vivo, mouse
Protocol: (§1) Control groups (7 and 8) received PBS alone.
An indirect ELISA technique was used to detect plasma IgG and IgE antibodies against GALNS in treated and untreated mice. […] The plates were blocked with 3% Casein in PBS for 1 h at room temperature in a wet chamber. After two washes, first with TTBS (10 mMTris, 150 mM NaCl, 0.05% Tween20, pH 7.5), and then with TBS (10 mM Tris, 150 mM NaCl, 0.05%, pH 7.5), […] of mice plasma samples diluted 1:500, for IgE and 1:1,000 for IgG, in TTBS were added to the plate and incubated 2 h at 37° C. in a wet chamber. Four washes with TTBS were performed. 100 μl of anti-mouse IgE-HRP (Thermo Scientific) 1:1,000 in TTBS or IgG-Peroxidase (Sigma) 1:5,000 dilution in TTBS were applied. After three washes with TTBS, followed by one wash with TBS, the experiment was developed with the substrate TMB (3,3′,5,5′Tetramethylbenzidine). The enzymatic reaction was stopped with IN HCl solution and the absorbance was measured at 450 nm in a Multiskan® EL800 (Bio-Tek Instruments). Plasma concentrations of IgG antibodies anti-GALNS were derived by extrapolation of the absorbance values from a calibration curve using a mAb anti-GALNS.

MKC mice [2] = assay: Oral tolerance protocol followed by ERT, overall outcome; format: in vivo, mouse; settings: oral administration prior to ERT
Source text: as §1

MKC mice [3] = assay: Oral tolerance induction: secreted cytokines after GALNS in vitro stimulation (Examples 15-18); format: in vivo, mouse; settings: for IFN-γ secretion after oral treatment: oral 50, 100 or 500 μg, GALNS in vitro stimulation
Source text: as §1
Secreted cytokines (IL-4, IL-5, IL-10, IL-13 and IFN-γ) in the collected supernatants were detected by a bead immunoassay kit which allow the measurement of multiple proteins simultaneously (LUMINEX xMAP Technology, using a Millipore Milliplex™) kit according manufacturer's instructions (FIG. 6).

MKC mice [4] = assay: Regulatory markers (CTLA-4, TGF-β) mRNA in Peyer patches after induction of tolerance (Example 21); format: in vivo, mouse; settings: real-time PCR, oral 50, 100 or 500 μg
Source text: FIG. 25. Up-regulation of TGF-β expression after induction of tolerance in mice PP. […] Control groups were fed with PBS. […] The fold change in expression was related to the values of non-tolerized group. GAPDH was using as a housekeeping gene for the data normalization.
FIG. 26. Up-regulation of CTLA-4 expression after induction of tolerance in mice PP. […] Control groups were fed with PBS. […] The fold change in expression was related to the values of non-tolerized group. GAPDH was using as a housekeeping gene for the data normalization.
Regulatory Markers Evaluation in Peyer Patches (PP) after Induction of Tolerance. […] Most of the mice presented up-regulation of these regulatory molecules when compare with the non-tolerized group.

splenocytes [5] = assay: Screening of peptides by splenocytes proliferation, retest in MKC mice (Examples 5-6); format: cell-based, mouse; settings: MKC mice, 16, 22 and 24 infusions; with higher number of infusions
Protocol: of body weight through the tail vein. A control group received PBS. […] The suspension was centrifuged at 1,000 rpm during 10 minutes. […] The specificity of cellular response against the peptides or the complete enzyme in the in vitro stimulation was determined by splenocyte proliferation or cytokine secretion in ERT treated mice or PBS injected control mice. […] 3H-Thymidine incorporation was measured by β-Scintillation counter (Trilux Microbeta Counter). Proliferation data are expressed as counts per minute (cpm) values (FIG. 5). (Mirano-Bascos et al. (2010) J Virol. 84(7): p. 3303-11).

splenocytes [6] = assay: Secreted cytokines of splenocytes in Morquio A mouse models and WT mice treated by ERT (Examples 10-13); format: cell-based; settings: for IL-4 secretion / IL-5 secretion / IL-13 secretion: MTol mice
Protocol: (§2) Morquio A mouse models: a). […] 14(22): p. 3321-35).c). Missense mutation mice (Galnstm (C76S) SLU C2) (Tomatsu et al. (2007) Mol Genet Metab., 91(3): p. 251-8), and wild-type C57BL6 mice were treated by ERT. […] A control group received PBS.
(§3) The suspension was centrifuged at 1,000 rpm during 10 minutes.
(§4) Cytokines were determined in the cell culture supernatants. […] Cells were centrifuged at 1000 rpm during 10 min. Secreted cytokines (IL-4, IL-5, IL-13, and IFN-γ) in the collected supernatants were detected by a bead immunoassay kit which allow the measurement of multiple proteins simultaneously (LUMINEX xMAP Technology, using a Millipore Milliplex™ kit) according to manufacturer's instructions.

splenocytes [7] = assay: Splenocytes proliferation in Morquio A mouse models and WT mice treated by ERT (Example 9); format: cell-based
Protocol: as §2, §3
Thymidine incorporation was measured by β-Scintillation counter (Trilux Microbeta Counter) Mirano-Bascos, et al. (2010) J Virol. 84(7): p. 3303-11).

splenocytes [8] = assay: Secreted cytokine profile of splenocytes, retest in MKC mice (Example 7); format: cell-based, mouse; settings: for IL-5 secretion, ERT treated vs PBS controls, p or significance / IL-13 secretion, ERT treated vs PBS controls, p or significance / profile of secreted cytokines, ERT treated vs PBS treated mice: MKC mice; for levels of IL-4 secretion among the stimuli / levels of IL-5 secretion among the stimuli: MKC mice treated by ERT; for profile of secreted cytokines, ERT treated vs PBS treated mice: 16 i.v. infusions
Protocol: The predicted peptides from Example 1 were reevaluated in MKC mice to reaffirm the selection of peptides 4, 8, and 10. […] A control group received PBS. […] The suspension was centrifuged at 1,000 rpm during 10 minutes. […] The specificity of cellular response against the peptides or the complete enzyme in the in vitro stimulation was determined by splenocyte proliferation or cytokine secretion in ERT treated mice or PBS injected control mice.
as §4, with “1,000” for “1000”, “instructions (FIG. 5).” for “instructions.”

[9] = oral 50 μg, one week after the last infusion

Molecule | reduction in GALNS specific IgG plasma levels vs non-tolerized mice, p or words (MKC mice [1]; [9]) | reduction in GALNS specific IgG plasma levels vs non-tolerized mice, p or words (MKC mice [1]; oral 100 μg) | inducing oral tolerance to GALNS (MKC mice [2]) | IFN-γ secretion after oral treatment (MKC mice [3]) | TGF-β expression in Peyer patches vs non-tolerized group (MKC mice [4]) | relationship between number of weekly i.v. infusions and cpm values of splenocytes proliferation (splenocytes [5]) | IFN-γ secretion, MKC vs MTol mice treated by ERT, p or significance (splenocytes [6]) | IL-4 secretion (splenocytes [6]) | IL-5 secretion (splenocytes [6]) | IL-13 secretion (splenocytes [6]) | splenocytes proliferation, ERT treated vs PBS controls (splenocytes [7]; C2 mice) | splenocytes proliferation, ERT treated vs PBS controls (splenocytes [7]; MKC mice) | splenocytes proliferation, ERT treated vs PBS controls (splenocytes [7]; WT mice) | IL-5 secretion, ERT treated vs PBS controls, p or significance (splenocytes [8]) | IL-13 secretion, ERT treated vs PBS controls, p or significance (splenocytes [8]) | levels of IL-4 secretion among the stimuli (splenocytes [8]) | levels of IL-5 secretion among the stimuli (splenocytes [8]) | profile of secreted cytokines, ERT treated vs PBS treated mice (splenocytes [8]) | other results
QQHQEALVPAQPQLNVTNWA (listed as Homo sapiens) [Peptide I10] | 0.0086 | same levels or in some cases higher levels | effective | down-regulated | observed in both groups | lower levels of proliferation | 0.044 | did not present secretion of IL-4 | did not present secretion of IL-5 | did not show any secretion of IL-13 | statistically significant difference | statistically significant | statistically significant difference | 0.0094 | 0.0002 | Higher levels | Higher levels | statistically significant difference | reduction in GALNS specific IgG plasma levels vs non-tolerized mice, p or words (MKC mice [1]; oral 500 μg): same levels or in some cases higher levels; CTLA-4 expression in Peyer patches vs non-tolerized group (MKC mice [4]): predominantly up-regulated; specific cellular response after splenocytes in vitro stimulation (splenocytes [6]; mice treated by ERT, compared with GALNS stimulation): very similar to the one observed by in vitro stimulation with GALNS
B1 | same levels or in some cases higher levels | 0.033 | effective | did not show any modulation | observed in both groups | lower levels of proliferation | not statistically significant | did not present secretion of IL-4 | did not present secretion of IL-5 | did not show any secretion of IL-13 | statistically significant difference | statistically significant | statistically significant difference | 0.0029 | 0.0152 | Higher levels | Higher levels | statistically significant difference | IL-10 secretion after oral treatment (MKC mice [3]; mice treated orally): down-regulation of IL-10
